Assays:
S100A4 [1] = molecular target: T1, S100A4 (Homo sapiens, UniProt P26447); assay: S100A4 biosensor (Mero-S100A4) fluorescence assay for S100A4 inhibitors; format: biochemical; conditions: screening assay: 5 μM S100A4 biosensor (dimer), 100 μM FDA approved drug, 0.3 mM CaCl2; controls: no addition 8475, calcium 14996, calcium + EGTA 6088
T1 construct: It is a chemical label, not a fused protein
Source text: We produced and characterized a fluorescent analog of S100A4 (Mero-S100A4) that reports calcium binding, and thus serves to identify activated S100A4 (Garrett et al., 2004). To produce the S100A4 biosensor that monitors protein activation (i.e., calcium binding) Cys81 was derivatized with the ISO-IAA dye to a stoichiometry of 1:1 (FIG. 2).
Binding of the Mero-S100A4 to myosin-IIA results in only a small increase in fluorescence intensity (FIG. 3, right panel). These observations indicate that the S100A4 biosensor reports only calcium binding and not target binding. In addition, calcium binding studies indicate that mutagenesis and dye attachment have not altered the binding affinity of the labeled S100A4 for calcium (data not shown).
A total of 333 FDA approved drugs were tested for their ability to inhibit S100A4, using the biosensor described in Example 1. Screening assays used 5 μM S100A4 biosensor (dimer concentration), 100 μM FDA approved drug, buffer: 50 mM Tris-HCl, pH 7.5, 150 mM NaCl, 0.3 mM CaCl2, 0.02% NaN3, 1 mM DTT, 10% DMSO. […] 100 μl assay volume.

S100A4 [2] = molecular target: T1, S100A4; assay: as above; format: biochemical; conditions: 5 μM S100A4 biosensor, 0-400 μM small molecule inhibitor, 0.3 mM CaCl2 buffer

T1 sequence (P26447 whole entry C3A/C76A/C86A, form open, the tested form may be a part): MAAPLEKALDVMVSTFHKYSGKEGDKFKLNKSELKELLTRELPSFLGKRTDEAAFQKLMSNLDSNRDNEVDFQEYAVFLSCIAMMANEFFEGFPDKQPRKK

SMILES | Arbitrary Fluorescence Units (S100A4 [1]) | IC50 (S100A4 [2]) [µM]
CC(C)COCC(CN(Cc1ccccc1)c1ccccc1)N1CCCC1 (stereo not drawn) [bepridil] | 6954 Arbitrary Fluorescence Units | 35
CN(C)CC/C=C1/c2ccccc2Sc2ccc(Cl)cc21 [chlorprothixene] | 7977 Arbitrary Fluorescence Units | 145
CN(C)CCCN1c2ccccc2CCc2ccc(Cl)cc21 [clomipramine] | 7898 Arbitrary Fluorescence Units | 133
CN1CCC(=C2c3ccccc3C=Cc3ccccc32)CC1 [cyproheptadine] |  | 256
OCCN1CCN(CC/C=C2/c3ccccc3Sc3ccc(C(F)(F)F)cc32)CC1 [flupenthixol-cis] | 6449 Arbitrary Fluorescence Units | 59
OCCN1CCN(CCCN2c3ccccc3Sc3ccc(C(F)(F)F)cc32)CC1 [fluphenazine] | 6908 Arbitrary Fluorescence Units | 46
CC(=O)N1CCN(c2ccc(OCC3COC(Cn4ccnc4)(c4ccc(Cl)cc4Cl)O3)cc2)CC1 (stereo not drawn) [ketoconazole] | 7759 Arbitrary Fluorescence Units | 23
CN(C)C(=O)C(CCN1CCC(O)(c2ccc(Cl)cc2)CC1)(c1ccccc1)c1ccccc1 [loperamide] | 3820 Arbitrary Fluorescence Units | 18
OCCN1CCN(CCCN2c3ccccc3Sc3ccc(Cl)cc32)CC1 [perphenazine] | 7399 Arbitrary Fluorescence Units | 164
CN1CCN(CCCN2c3ccccc3Sc3ccc(Cl)cc32)CC1 [prochlorperazine] | 5505 Arbitrary Fluorescence Units | 33
CN1CCN(CCCN2c3ccccc3Sc3ccc(C(F)(F)F)cc32)CC1 [trifluoperazine] | 7939 Arbitrary Fluorescence Units | 34

Reference: patent US8236791B2, “Assays for S100 inhibitors” (Albert Einstein College of Medicine of Yeshiva University, priority 2005, dated 2012)
